The target of data set [1] is Serine/threonine-protein kinase Chk2 (Homo sapiens, UniProt O96017). As to the kind of experiment: Inhibition of CHK2 (unknown origin) by FRET-based homogenous assay.
Data set [2] concerns the target T1, Cytochrome P450 1A2 (Homo sapiens, UniProt P05177).
T1 sequence (P05177 whole entry): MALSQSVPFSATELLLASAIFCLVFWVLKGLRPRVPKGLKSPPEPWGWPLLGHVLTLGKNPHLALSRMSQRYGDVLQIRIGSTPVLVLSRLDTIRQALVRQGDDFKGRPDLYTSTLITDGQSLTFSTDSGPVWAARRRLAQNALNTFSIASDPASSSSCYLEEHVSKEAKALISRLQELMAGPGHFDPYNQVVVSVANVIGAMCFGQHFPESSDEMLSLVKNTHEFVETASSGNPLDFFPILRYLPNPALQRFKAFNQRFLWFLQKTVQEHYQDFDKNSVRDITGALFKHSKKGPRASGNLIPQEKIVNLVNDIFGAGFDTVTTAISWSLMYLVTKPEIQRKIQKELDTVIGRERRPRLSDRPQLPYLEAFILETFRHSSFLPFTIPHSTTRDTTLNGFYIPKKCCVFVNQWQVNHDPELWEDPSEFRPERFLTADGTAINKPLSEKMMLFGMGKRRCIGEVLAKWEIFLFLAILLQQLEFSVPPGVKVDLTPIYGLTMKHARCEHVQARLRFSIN
As to the kind of experiment: Inhibition of CYP1A2 in supersomes (unknown origin) using CEC as substrate after 30 mins. Format: ADME.

Data set [3] concerns the target Cytochrome P450 3A4 (Homo sapiens, UniProt P08684). As to the kind of experiment: Inhibition of CYP3A4 in supersomes (unknown origin) using 7-benzyloxy-4-trifluoromethylcoumarin as substrate after 30 mins. It is filed as ADME.
Data set [4] concerns the target Cytochrome P450 2C9 (Homo sapiens, UniProt P11712). In words: Inhibition of CYP2C9 in supersomes (unknown origin) using MFC as substrate after 30 mins. It is filed as ADME.
Data set [5] has as its target Cytochrome P450 2C19 (Homo sapiens, UniProt P33261). As to the kind of experiment: Inhibition of CYP2C19 in supersomes (unknown origin) using MFC as substrate after 30 mins. Format: ADME.
The nature of data set [6]: Permeability of the compound at pH 7.4 by PAMPA. Format: ADME. Particulars: read-out: permeability.
Data set [7] addresses Cytochrome P450 2D6 (Homo sapiens, UniProt P10635). As to the kind of experiment: Inhibition of CYP2D6 in supersomes (unknown origin) using AMMC as substrate after 30 mins. It is filed as ADME.
For data set [8], the target named is T2, Dual specificity protein kinase TTK (Homo sapiens, UniProt P33981).
T2 sequence (P33981 whole entry): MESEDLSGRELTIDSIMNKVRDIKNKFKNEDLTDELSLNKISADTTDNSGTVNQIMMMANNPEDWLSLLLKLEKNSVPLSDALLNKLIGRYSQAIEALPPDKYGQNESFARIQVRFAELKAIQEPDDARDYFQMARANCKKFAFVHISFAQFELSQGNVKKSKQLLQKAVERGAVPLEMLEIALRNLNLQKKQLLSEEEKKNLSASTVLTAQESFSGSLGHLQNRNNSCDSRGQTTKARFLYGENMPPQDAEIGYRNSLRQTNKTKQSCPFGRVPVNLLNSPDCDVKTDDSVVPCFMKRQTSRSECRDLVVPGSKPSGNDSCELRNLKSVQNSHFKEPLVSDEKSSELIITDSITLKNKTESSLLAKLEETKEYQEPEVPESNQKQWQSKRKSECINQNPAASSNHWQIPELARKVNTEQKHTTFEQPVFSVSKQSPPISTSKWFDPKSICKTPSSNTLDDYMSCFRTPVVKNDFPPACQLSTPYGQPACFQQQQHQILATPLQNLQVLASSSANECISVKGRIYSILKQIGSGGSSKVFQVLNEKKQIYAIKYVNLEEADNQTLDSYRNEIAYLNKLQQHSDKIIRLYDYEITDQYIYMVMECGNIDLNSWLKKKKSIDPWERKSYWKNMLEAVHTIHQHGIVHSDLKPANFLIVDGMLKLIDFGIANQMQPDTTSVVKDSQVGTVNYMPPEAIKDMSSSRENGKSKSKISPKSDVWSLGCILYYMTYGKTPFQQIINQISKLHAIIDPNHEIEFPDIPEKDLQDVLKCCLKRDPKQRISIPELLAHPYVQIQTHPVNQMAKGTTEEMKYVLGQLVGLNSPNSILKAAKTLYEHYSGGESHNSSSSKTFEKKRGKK
As to the kind of experiment: Inhibition of SUMO-tagged human TTK (1-275 residues) compound pre-incubated for 15 mins prior ATP addition by MBP-based assay.

In data set [9] the target is T3, Aurora kinase A (Homo sapiens, UniProt O14965).
T3 sequence (O14965 whole entry): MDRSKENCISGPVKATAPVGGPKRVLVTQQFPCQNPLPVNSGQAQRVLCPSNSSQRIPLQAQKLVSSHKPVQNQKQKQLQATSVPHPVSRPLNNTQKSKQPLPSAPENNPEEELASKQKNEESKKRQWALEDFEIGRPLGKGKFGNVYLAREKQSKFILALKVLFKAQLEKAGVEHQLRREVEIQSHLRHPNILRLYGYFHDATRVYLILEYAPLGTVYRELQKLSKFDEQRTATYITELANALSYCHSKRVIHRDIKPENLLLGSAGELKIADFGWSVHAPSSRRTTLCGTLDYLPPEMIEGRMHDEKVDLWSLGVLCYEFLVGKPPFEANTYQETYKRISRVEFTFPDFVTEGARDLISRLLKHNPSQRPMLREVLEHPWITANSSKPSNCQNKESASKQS
As to the kind of experiment: Inhibition of Aurora A (unknown origin) by FRET-based homogenous assay.

We go through two compounds from ChEMBL document CHEMBL3352261, “Discovery of inhibitors of the mitotic kinase TTK based on N-(3-(3-sulfamoylphenyl)-1H-indazol-5-yl)-acetamides and carboxamides” (Bioorg Med Chem, 2014).

Structures are written as SMILES.

Cytochrome P450 2C9, sequence (P11712 whole entry): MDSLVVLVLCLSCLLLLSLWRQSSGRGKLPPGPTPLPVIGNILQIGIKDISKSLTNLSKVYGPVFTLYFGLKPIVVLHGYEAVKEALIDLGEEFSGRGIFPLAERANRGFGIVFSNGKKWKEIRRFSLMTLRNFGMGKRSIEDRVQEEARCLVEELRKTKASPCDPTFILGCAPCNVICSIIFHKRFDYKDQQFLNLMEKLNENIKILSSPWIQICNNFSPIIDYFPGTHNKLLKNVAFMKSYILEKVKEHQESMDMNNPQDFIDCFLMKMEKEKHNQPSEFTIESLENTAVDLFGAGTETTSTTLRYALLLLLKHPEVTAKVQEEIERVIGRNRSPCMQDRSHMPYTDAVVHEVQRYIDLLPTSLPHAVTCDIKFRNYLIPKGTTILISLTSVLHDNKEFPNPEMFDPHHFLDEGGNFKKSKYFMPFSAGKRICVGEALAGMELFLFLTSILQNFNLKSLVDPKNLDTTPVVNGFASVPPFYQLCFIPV
Cytochrome P450 2C19, sequence (P33261 whole entry): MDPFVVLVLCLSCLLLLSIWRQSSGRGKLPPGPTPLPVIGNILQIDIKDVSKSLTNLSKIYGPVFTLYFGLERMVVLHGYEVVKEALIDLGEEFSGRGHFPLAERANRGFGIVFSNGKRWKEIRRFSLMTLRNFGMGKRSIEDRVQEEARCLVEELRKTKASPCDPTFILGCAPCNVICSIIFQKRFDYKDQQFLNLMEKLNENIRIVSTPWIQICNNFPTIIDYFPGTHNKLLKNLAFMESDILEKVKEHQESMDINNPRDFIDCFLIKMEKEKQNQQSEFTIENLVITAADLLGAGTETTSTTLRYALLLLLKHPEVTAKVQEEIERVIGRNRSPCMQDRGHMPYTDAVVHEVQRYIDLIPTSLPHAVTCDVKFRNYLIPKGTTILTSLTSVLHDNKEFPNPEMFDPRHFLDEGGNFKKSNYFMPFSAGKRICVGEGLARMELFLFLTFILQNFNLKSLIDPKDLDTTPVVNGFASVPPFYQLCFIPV
Serine/threonine-protein kinase Chk2, sequence (O96017 whole entry): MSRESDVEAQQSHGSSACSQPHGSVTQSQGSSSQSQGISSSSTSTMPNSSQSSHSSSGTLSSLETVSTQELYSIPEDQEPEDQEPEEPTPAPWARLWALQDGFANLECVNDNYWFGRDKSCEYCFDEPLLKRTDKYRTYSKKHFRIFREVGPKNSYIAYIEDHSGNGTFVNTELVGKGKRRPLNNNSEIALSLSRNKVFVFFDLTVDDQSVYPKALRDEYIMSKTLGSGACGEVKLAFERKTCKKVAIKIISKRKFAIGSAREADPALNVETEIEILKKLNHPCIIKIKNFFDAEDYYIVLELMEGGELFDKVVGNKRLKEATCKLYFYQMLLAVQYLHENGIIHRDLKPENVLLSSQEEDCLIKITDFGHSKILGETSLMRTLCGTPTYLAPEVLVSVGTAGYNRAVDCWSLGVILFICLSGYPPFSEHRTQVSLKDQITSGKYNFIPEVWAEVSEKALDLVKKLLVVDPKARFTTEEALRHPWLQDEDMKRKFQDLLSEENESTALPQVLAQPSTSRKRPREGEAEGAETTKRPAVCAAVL
Cytochrome P450 3A4, sequence (P08684 whole entry): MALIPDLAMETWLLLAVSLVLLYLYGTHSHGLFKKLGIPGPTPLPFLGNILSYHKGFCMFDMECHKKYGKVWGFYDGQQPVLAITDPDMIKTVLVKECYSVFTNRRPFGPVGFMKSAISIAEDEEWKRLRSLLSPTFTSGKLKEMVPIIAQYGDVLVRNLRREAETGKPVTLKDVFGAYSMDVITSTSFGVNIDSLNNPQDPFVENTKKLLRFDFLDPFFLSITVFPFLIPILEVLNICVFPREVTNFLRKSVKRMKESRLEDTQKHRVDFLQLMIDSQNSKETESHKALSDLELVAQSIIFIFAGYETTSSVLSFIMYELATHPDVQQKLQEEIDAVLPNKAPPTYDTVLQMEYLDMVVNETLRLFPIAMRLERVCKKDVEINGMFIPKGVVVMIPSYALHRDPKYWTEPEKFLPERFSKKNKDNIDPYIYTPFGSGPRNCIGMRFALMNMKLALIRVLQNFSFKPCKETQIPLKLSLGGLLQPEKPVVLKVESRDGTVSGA
Cytochrome P450 2D6, sequence (P10635 whole entry): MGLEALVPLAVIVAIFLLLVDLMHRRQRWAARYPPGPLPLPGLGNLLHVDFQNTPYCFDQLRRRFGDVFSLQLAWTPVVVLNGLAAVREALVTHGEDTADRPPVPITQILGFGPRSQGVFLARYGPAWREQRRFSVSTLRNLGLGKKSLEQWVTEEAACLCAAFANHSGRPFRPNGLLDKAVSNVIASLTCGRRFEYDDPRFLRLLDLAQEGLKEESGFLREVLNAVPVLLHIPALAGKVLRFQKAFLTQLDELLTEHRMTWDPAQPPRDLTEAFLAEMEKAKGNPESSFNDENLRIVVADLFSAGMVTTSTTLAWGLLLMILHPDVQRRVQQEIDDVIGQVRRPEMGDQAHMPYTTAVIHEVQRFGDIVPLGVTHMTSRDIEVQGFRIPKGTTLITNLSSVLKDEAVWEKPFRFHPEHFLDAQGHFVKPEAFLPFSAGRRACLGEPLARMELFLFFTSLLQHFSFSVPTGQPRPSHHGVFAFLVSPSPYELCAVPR

On to `NS(=O)(=O)c1cccc(-c2n[nH]c3ccc(NC(=O)C(c4ccsc4)N4CCCC4)cc23)c1` (racemic), for which the IC50 is 100 nM in data set [1]; above 10 µM in [2]; 4000 nM in [3]; 900 nM in [4]; 5.3 µM in [5]; 10 µM in data set [7]. Further, the half-maximal inhibitory concentration (IC50) in data set [8] was found to be 2.9 nM; in data set [9], 900 nM. The Papp in data set [6] is 4.2 ×10⁻⁶ cm/s.
`CCc1ccccc1C(C(=O)Nc1ccc2[nH]nc(-c3cccc(S(N)(=O)=O)c3)c2c1)N(C)C` (racemic): the IC50 in [1] is 420 nM; in data set [2] it was above 10 µM; in data set [3] it was 700 nM; in data set [4] it was 2500 nM; in data set [5], 2.3 µM; in [7], 5 µM. Besides, the half-inhibitory concentration (IC50) was determined as 3.6 nM in data set [8] and 400 nM in [9]. For the same compound, in data set [6], the Papp came to 19 ×10⁻⁶ cm/s.
